For orientation: MIC99 means an inhibitory concentration at the 99% level, which refers to growth in some studies and to a panel of isolates in others. For orientation: MIC80 means an inhibitory concentration at the 80% level, which refers to growth in some studies and to a panel of isolates in others. What is called IC50 is the concentration needed to halve the response being measured.

The structures appear in SMILES notation. Values after ≈ are worked out from the molar mass of the structure shown.

For one test, the system named is C. neoformans (F10025). The following applies: Cryptococcus neoformans, read-out: MIC99 C. neoformans.
Test [1] deals with Staphylococcus aureus (ATCC 43300). Description: Antibacterial MIC, broth microdilution (CLSI). The class given is cell-based. The following applies: for S. aureus Selectivity Indices, Group / S. aureus Selectivity Index (SI): SI, IC50 (μM)/MIC80 (μM), HEK293 cytotoxicity; for MIC80: Staphylococcus aureus, ATCC43300, read-out: MIC80 S. aureus; for S. aureus Selectivity Index (SI): numeric value.

Test [2] concerns A. fumigatus A1160 (MFIG001). The following applies: Aspergillus fumigatus, read-out: MIC99 A. fumigatus A1160.
Protocol: (§2) The Minimum Inhibitory Concentration (MIC, at 99% inhibition) of the compounds was determined using the broth microdilution method as recommended by EUCAST (EUCAST Definitive Document E.DEF 9.3.2, Method for the determination of broth dilution minimum inhibitory concentrations of antifungal agents for conidia forming moulds and EUCAST Definitive Document E.DEF 7.3.2 Method for the determination of broth dilution minimum inhibitory concentrations of antifungal agents for yeasts).
The next test relates to T. vaginalis. Description: Trichomonas resorufin assay. The note with it: for IC50: Trichomonas vaginalis, read-out: IC50 T. vaginalis; for T. vaginalis Selectivity Indices, Group / T. vaginalis Selectivity Index (SI): SI, IC50 (μM)/IC50 (μM), HEK293 cytotoxicity; for T. vaginalis Selectivity Index (SI): numeric value. It counts as cell-based.
Test [3] concerns Genomic double stranded DNA (salmon). Description: Fluorescence intercalator displacement (FID) assay, SYBR-safe probe. The following applies: 20 μM compound, 30° C., lower % = stronger binding. A digest of the protocol:
(§1)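 Probe displacement was measured at 30 °C in 1 mM phosphate pH 7.4 containing SybrSafe (12500-fold dilution), 3.76 ng/mL nucleic acid (salmon dsDNA or polyAU dsRNA) and 20 μM compound. Fluorescence loss is normalised between probe-only and probe-plus-nucleic-acid controls.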

The subject of test [4] is PolyAU double stranded RNA. Described as above. The following applies: 20 μM compound, 30° C., lower % = stronger binding. The procedure, abridged: as §1
The subject of test [5] is Enterococcus faecalis (ATCC 51299). Put plainly: Antibacterial MIC, broth microdilution (CLSI). The following applies: for MIC80: Enterococcus faecalis, ATCC51299, read-out: MIC80 E. faecalis. It counts as cell-based.
Test [6] relates to Escherichia coli (ATCC 25922). Description: Antibacterial MIC, broth microdilution (CLSI). The class given is cell-based. The note with it: Escherichia coli, ATCC25922; read-out: MIC80 E. coli. For orientation: Dilution methods test growth across graded concentrations, often in twofold steps.
Test [7] relates to Candida glabrata (ACPF3309). The note with it: Nakaseomyces glabratus, read-out: MIC99 Candida glabrata.
Setting [8] is: SI, IC50 (μM)/MIC80 (μM), HEK293 cytotoxicity, Quaternary ammoniums.

Protocol for C. neoformans (F10025): as §2

For the compound `COc1ccc(/C=C/c2ccc(C(=O)Nc3cc(C(=O)Nc4cc(C(=O)NCCC(=N)NC(C)C)n(C)c4)n(C)c3)cc2)cc1` [Ia18, (E)-N-(3-imino-3-(isopropylamino)propyl)-4-(4-(4-(4-methoxystyryl)benzamido)-1-methyl-1H-pyrrole-2-carboxamido)-1-methyl-1H-pyrrole-2-carboxamide], the MIC99 is 5 to 25 µg/mL (≈ 8.2 to 41 µM) with C. neoformans (F10025) and above 50 µg/mL in test [2]. Also, the “S. aureus Selectivity Indices, Group” value in test [1] (Alkyl Amidines and NH Pyrroles) is “B (Group B: 3 < SI <= 5)”. The MIC80 in test [1] was 5 to 25 µM (≈ 3.05 to 15.2 µg/mL); in test [5] it was 5 to 25 µM (≈ 3.05 to 15.2 µg/mL); in [6], 25 to 100 µM (≈ 15.2 to 61 µg/mL). Further, in the test with T. vaginalis, the concentration for half-maximal inhibition (IC50) is 5 to 50 µM. In addition, in test [3], the “% Normalised Fluorescence with gDNA” value stood at 6%. For the same compound, in test [4], the “% Normalised Fluorescence with polyAU RNA” value came to 9%.
`Cn1cc(NC(=O)c2cc(NC(=O)c3ccc(/C=C/c4cnc5ccccc5c4)cc3)cn2C)cc1C(=O)NCCC(=N)N1CCSCC1` [Ib7, (E)-N-(3-imino-3-thiomorpholinopropyl)-1-methyl-4-(1-methyl-4-(4-(2-(quinolin-3-yl)vinyl)benzamido)-1H-pyrrole-2-carboxamido)-1H-pyrrole-2-carboxamide]: the MIC99 (in the test on C. neoformans (F10025); in test [7]) was 5 to 25 µg/mL (≈ 7.41 to 37 µM) in each case. In [1] (Alkyl Amidines and NH Pyrroles), the “S. aureus Selectivity Indices, Group” value was “D (D: SI > 10)”. Also, the “S. aureus Selectivity Index (SI)” value in test [1] was 26. The MIC80 in test [1] was below 5 µM; in test [5], below 5 µM; in [6] it was above 100 µM. Further, in the test with T. vaginalis (Alkyl Amidines and NH Pyrroles), the “T. vaginalis Selectivity Indices, Group” value is on record as “B (Group B: 8 < SI <= 16)”. In addition, the IC50 in the test with T. vaginalis was in the range of 1 to 5 µM. Moreover, the “% Normalised Fluorescence with gDNA” value in test [3] stood at 22%. For the same compound, the “% Normalised Fluorescence with polyAU RNA” value in test [4] was found to be 7%. Further, the “E. faecalis Selectivity Indices, Group” value in test [5] (SI, IC50 (μM)/MIC80 (μM), HEK293 cytotoxicity, Alkyl Amidines and NH Pyrroles) is reported as “C (Group C: 5 < SI <= 10)”.
Consider `CC[N+](C)(C)CCNC(=O)c1cc(NC(=O)c2cc(NC(=O)c3ccc(/C=C/c4cnc5ccccc5c4)cc3)cn2C)cn1C` [Ic1, (E)-N-ethyl-N,N-dimethyl-2-(1-methyl-4-(1-methyl-4-(4-(2-(quinolin-3-yl)vinyl)benzamido)-1H-pyrrole-2-carboxamido)-1H-pyrrole-2-carboxamido)ethan-1-aminium], for which the MIC99 was 5 to 25 µg/mL with C. neoformans (F10025), 5 to 25 µg/mL in test [7] and above 50 µg/mL in test [2]. Moreover, the MIC80 was below 5 µM in test [1], below 5 µM in [5] and above 100 µM in test [6]. For the same compound, in the test on T. vaginalis, the half-maximal inhibitory concentration (IC50) is below 1 µM.
For `CCC[N+](C)(C)CCNC(=O)c1cc(NC(=O)c2cc(NC(=O)c3ccc(/C=C/c4cnc5ccccc5c4)cc3)cn2C)cn1C` [Ic2, (E)-N,N-dimethyl-N-(2-(1-methyl-4-(1-methyl-4-(4-(2-(quinolin-3-yl)vinyl)benzamido)-1H-pyrrole-2-carboxamido)-1H-pyrrole-2-carboxamido)ethyl)propan-1-aminium], the MIC99 was 5 to 25 µg/mL in the test on C. neoformans (F10025), below 5 µg/mL in [7] and above 50 µg/mL in test [2]. Besides, the MIC80 was below 5 µM in test [1], below 5 µM in test [5] and above 100 µM in [6]. Moreover, in the test with T. vaginalis, the IC50 is below 1 µM.
Take `CCCC[N+](C)(C)CCNC(=O)c1cc(NC(=O)c2cc(NC(=O)c3ccc(/C=C/c4cnc5ccccc5c4)cc3)cn2C)cn1C` [Ic3, (E)-N,N-dimethyl-N-(2-(1-methyl-4-(1-methyl-4-(4-(2-(quinolin-3-yl)vinyl)benzamido)-1H-pyrrole-2-carboxamido)-1H-pyrrole-2-carboxamido)ethyl)butan-1-aminium]: the MIC99 is 5 to 25 µg/mL with C. neoformans (F10025), 5 to 25 µg/mL in test [7] and above 50 µg/mL in test [2]. The MIC80 in [1] was below 5 µM; in test [5], below 5 µM; in [6], above 100 µM. In addition, in the test with T. vaginalis (Quaternary ammoniums), the “T. vaginalis Selectivity Indices, Group” value is “D (Group D: SI > 3)”. Besides, the “T. vaginalis Selectivity Index (SI)” value with T. vaginalis is 6. For the same compound, in the test with T. vaginalis, the concentration for half-maximal inhibition (IC50) lay within 1 to 5 µM. Further, the “E. faecalis Selectivity Indices, Group” value in test [5] (setting [8]) was “D (Group D: SI > 5)”. Moreover, the “E. faecalis Selectivity Index (SI)” value in test [5] (SI, IC50 (μM)/MIC80 (μM), HEK293 cytotoxicity, numeric value) is recorded as 11.
As for `CCCCC[N+](C)(C)CCNC(=O)c1cc(NC(=O)c2cc(NC(=O)c3ccc(/C=C/c4cnc5ccccc5c4)cc3)cn2C)cn1C` [Ic4, (E)-N,N-dimethyl-N-(2-(1-methyl-4-(1-methyl-4-(4-(2-(quinolin-3-yl)vinyl)benzamido)-1H-pyrrole-2-carboxamido)-1H-pyrrole-2-carboxamido)ethyl)pentan-1-aminium], the MIC99 in the test on C. neoformans (F10025) was 5 to 25 µg/mL; in test [7], 5 to 25 µg/mL; in test [2] it was above 50 µg/mL. The “S. aureus Selectivity Indices, Group” value in [1] (Quaternary ammoniums) is on record as “D (Group D: SI > 10)”. For the same compound, the “S. aureus Selectivity Index (SI)” value in test [1] amounted to 11. Besides, the MIC80 is below 5 µM in test [1], below 5 µM in test [5] and above 100 µM in test [6]. The “T. vaginalis Selectivity Indices, Group” value with T. vaginalis (Quaternary ammoniums) is “D (Group D: SI > 3)”. For the same compound, in the test with T. vaginalis, the “T. vaginalis Selectivity Index (SI)” value amounted to 4. Further, the concentration for half-maximal inhibition (IC50) in the test with T. vaginalis is 1 to 5 µM. The “E. faecalis Selectivity Indices, Group” value in test [5] (setting [8]) was “C (Group C: 2 < SI <= 5)”.
Turning to `CCCCCCCC[N+](C)(C)CCNC(=O)c1cc(NC(=O)c2cc(NC(=O)c3ccc(/C=C/c4cnc5ccccc5c4)cc3)cn2C)cn1C` [Ic7, (E)-N,N-dimethyl-N-(2-(1-methyl-4-(1-methyl-4-(4-(2-(quinolin-3-yl)vinyl)benzamido)-1H-pyrrole-2-carboxamido)-1H-pyrrole-2-carboxamido)ethyl)octan-1-aminium], the figures for the MIC99 (in the test with C. neoformans (F10025); in test [7]; in [2]) were 5 to 25 µg/mL, 5 to 25 µg/mL and above 50 µg/mL, respectively. The “S. aureus Selectivity Indices, Group” value in test [1] (Quaternary ammoniums) was “D (Group D: SI > 10)”. Moreover, the “S. aureus Selectivity Index (SI)” value in test [1] was determined as 13. Also, the MIC80 in [1] was below 5 µM; in test [5], above 100 µM; in [6] it was above 100 µM. Also, in the test with T. vaginalis, the IC50 lay within 5 to 50 µM.
In the case of `CCCCCCCCCCCCCCC[N+](C)(C)CCNC(=O)c1cc(NC(=O)c2cc(NC(=O)c3ccc(/C=C/c4cnc5ccccc5c4)cc3)cn2C)cn1C` [Ic14, (E)-N,N-dimethyl-N-(2-(1-methyl-4-(1-methyl-4-(4-(2-(quinolin-3-yl)vinyl)benzamido)-1H-pyrrole-2-carboxamido)-1H-pyrrole-2-carboxamido)ethyl)pentadecan-1-aminium], the results for the MIC99 (in the test with C. neoformans (F10025); in [7]; in test [2]) were above 50 µg/mL, 25 to 50 µg/mL and above 50 µg/mL, respectively. In addition, the IC50 in the test with T. vaginalis was 5 to 50 µM.
Take `CCCCCCCCCCCCCCCC[N+](C)(C)CCNC(=O)c1cc(NC(=O)c2cc(NC(=O)c3ccc(/C=C/c4cnc5ccccc5c4)cc3)cn2C)cn1C` [Ic15, (E)-N,N-dimethyl-N-(2-(1-methyl-4-(1-methyl-4-(4-(2-(quinolin-3-yl)vinyl)benzamido)-1H-pyrrole-2-carboxamido)-1H-pyrrole-2-carboxamido)ethyl)hexadecan-1-aminium]: the MIC99 was 25 to 50 µg/mL in the test on C. neoformans (F10025), above 50 µg/mL in test [7] and above 50 µg/mL in test [2]. Moreover, the IC50 in the test with T. vaginalis fell in the range of 5 to 50 µM.

The values are drawn from patent US20250313546A1, “NUCLEIC ACID BINDERS” (UNIVERSITY OF STRATHCLYDE, priority 2022, published 2025).
